Measurements taken from patent US9255100B2 (BAYER INTELLECTUAL PROPERTY GMBH, priority 2010, dated 2016).

target: T1, N-terminally GST-tagged human full length recombinant Mps-1 kinase (Homo sapiens, UniProt P33981); assay: Mps-1 kinase assay (TR-FRET); type: biochemical; conditions: Mps1 IC50 [nM], 10 μM ATP, 1 μM peptide substrate, 60 min at 22° C.
T1 construct: N-terminally GST-tagged human full length recombinant Mps-1 kinase; purchased Invitrogen, Karslruhe, Germany PV4071
T1 sequence (P33981 1-857): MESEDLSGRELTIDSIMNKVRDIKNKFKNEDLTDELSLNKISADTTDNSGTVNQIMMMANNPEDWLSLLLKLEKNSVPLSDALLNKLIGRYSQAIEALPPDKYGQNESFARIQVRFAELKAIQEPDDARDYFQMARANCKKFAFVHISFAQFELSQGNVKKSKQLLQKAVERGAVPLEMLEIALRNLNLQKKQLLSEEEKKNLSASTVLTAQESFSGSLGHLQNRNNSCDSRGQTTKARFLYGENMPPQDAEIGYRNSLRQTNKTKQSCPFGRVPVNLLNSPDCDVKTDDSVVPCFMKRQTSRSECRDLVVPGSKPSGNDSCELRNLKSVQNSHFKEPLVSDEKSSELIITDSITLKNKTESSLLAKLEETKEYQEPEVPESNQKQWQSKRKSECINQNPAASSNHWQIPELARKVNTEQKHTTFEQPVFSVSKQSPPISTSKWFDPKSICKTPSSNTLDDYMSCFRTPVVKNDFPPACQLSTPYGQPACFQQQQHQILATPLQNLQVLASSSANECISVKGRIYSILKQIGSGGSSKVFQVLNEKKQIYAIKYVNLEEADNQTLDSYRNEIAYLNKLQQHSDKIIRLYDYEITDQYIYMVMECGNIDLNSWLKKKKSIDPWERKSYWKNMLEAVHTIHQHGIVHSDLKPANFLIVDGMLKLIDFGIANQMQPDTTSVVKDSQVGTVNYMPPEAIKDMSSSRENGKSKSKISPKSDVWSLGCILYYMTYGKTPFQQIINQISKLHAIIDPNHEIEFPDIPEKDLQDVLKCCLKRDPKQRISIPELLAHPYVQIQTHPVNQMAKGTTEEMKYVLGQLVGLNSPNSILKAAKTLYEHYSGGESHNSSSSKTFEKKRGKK
In short: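 Inhibition of Mps-1 (N-terminal GST fusion, full length) toward a biotinylated peptide is read as Eu-to-XLent TR-FRET. Enzyme level, around 1 nM final, follows lot activity.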

Structure (SMILES)	IC50 [nM]
Cc1cc(-c2cnc3c(NCC(C)(C)O)cc(Oc4ccc(OC(C)C)cc4)nn23)ccc1C(=O)NC1CC1 [Example 256, N-cyclopropyl-4-{8-[(2-hydroxy-2-methylpropyl)amino]-6-(4-isopropoxyphenoxy)imidazo[1,2-b]pyridazin-3-yl}-2-methylbenzamide]	0.2
CC(C)CNc1cc(-c2ccc3[nH]c(=O)[nH]c3c2)nn2c(-c3ccc(C(=O)NC4CC4)cc3)cnc12 [Example 151, N-cyclopropyl-4-{8-[(2-methylpropyl)amino]-6-(2-oxo-2,3-dihydro-1H-benzimidazol-5-yl)imidazo[1,2-b]pyridazin-3-yl}benzamide]	3.1
OCc1ccccc1-c1cc(NCCC(F)(F)F)c2ncc(-c3ccc(C(=S)NC4CC4)cc3)n2n1 [Example 44, N-cyclopropyl-4-{6-[2-(hydroxymethyl)phenyl]-8-[(3,3,3-trifluoropropyl)amino]imidazo[1,2-b]pyridazin-3-yl}benzenecarbothioamide]	2.6
CC(C)CNc1cc(-c2cccc(C(N)=O)c2)nn2c(-c3ccc(C(=O)NC4CC4)cc3)cnc12 [Example 114, 4-{6-(3-Carbamoylphenyl)-8-[(2-methylpropyl)amino]imidazo[1,2-b]pyridazin-3-yl}-N-cyclopropylbenzamide]	< 1
Cc1cc(-c2cnc3c(NCC(C)(C)O)cc(Oc4ccccc4)nn23)ccc1C(=O)NC1CC1 [Example 76, N-cyclopropyl-4-{8-[(2-hydroxy-2-methylpropyl)amino]-6-phenoxyimidazo[1,2-b]pyridazin-3-yl}-2-methylbenzamide]	< 0.7
Cc1cc(-c2cnc3c(NCC(C)(C)O)cc(Sc4ncc[nH]4)nn23)ccc1C(=O)NC1CC1 [Example 318, N-cyclopropyl-4-{8-[(2-hydroxy-2-methylpropyl)amino]-6-(1H-imidazol-2-ylsulfanyl)imidazo[1,2-b]pyridazin-3-yl}-2-methylbenzamide]	64.3
Cc1cc(-c2cnc3c(NCC(C)(C)O)cc(O/C=C(/F)C(F)(F)CO)nn23)ccc1C(=O)NC1CC1 [Example 241B, N-cyclopropyl-4-(8-[(2-hydroxy-2-methylpropyl)amino]-6-{[(1E)-2,3,3-trifluoro-4-hydroxybut-1-en-1-yl]oxy}imidazo[1,2-b]pyridazin-3-yl)-2-methylbenzamide]	3.4
Cc1cc(-c2cnc3c(NCC4COCCO4)cc(-c4ccncc4)nn23)ccc1C(=O)NC1CC1 (racemic) [Example 36, (RS)—N-cyclopropyl-4-{8-[(1,4-dioxan-2-ylmethyl)amino]-6-(pyridin-4-yl)imidazo[1,2-b]pyridazin-3-yl}-2-methylbenzamide]	3
Cc1cc(-c2cnc3c(NCCC(F)(F)F)cc(-c4ccnn4C)nn23)ccc1C(=O)NC1CC1 [Example 10, N-cyclopropyl-2-methyl-4-{6-(1-methyl-1H-pyrazol-5-yl)-8-[(3,3,3-trifluoropropyl)amino]imidazo[1,2-b]pyridazin-3-yl}benzamide]	< 1
Cc1cccc(Oc2cc(NCC(C)(C)O)c3ncc(-c4ccc(C(=O)NC5CC5)c(C)c4)n3n2)c1 [Example 97, N-cyclopropyl-4-{8-[(2-hydroxy-2-methylpropyl)amino]-6-(3-methylphenoxy)imidazo[1,2-b]pyridazin-3-yl}-2-methylbenzamide]	0.2
C=Cc1cccc(Nc2cc(NCC(C)(C)O)c3ncc(-c4ccc(C(=O)NC5CC5)c(C)c4)n3n2)c1 [Example 409, N-cyclopropyl-4-{6-[(3-ethenylphenyl)amino]-8-[(2-hydroxy-2-methylpropyl)amino]imidazo[1,2-b]pyridazin-3-yl}-2-methylbenzamide]	0.7
Cc1cc(F)cc(Sc2cc(NCC3CCSCC3)c3ncc(-c4ccc(C(=O)NC5CC5)c(C)c4)n3n2)c1 [Example 286, N-cyclopropyl-4-{6-[(3-fluoro-5-methylphenyl)sulfanyl]-8-[(tetrahydro-2H-thiopyran-4-ylmethyl)amino]imidazo[1,2-b]pyridazin-3-yl}-2-methylbenzamide]	0.4
Cc1cc(-c2cnc3c(NCC(C)(C)O)cc(-c4ccc(CO)cc4)nn23)ccc1C(=O)NC1CC1 [Example 155, N-cyclopropyl-4-{6-[4-(hydroxymethyl)phenyl]-8-[(2-hydroxy-2-methylpropyl)amino]imidazo[1,2-b]pyridazin-3-yl}-2-methylbenzamide]	3.6
Cc1cc(-c2cnc3c(NCC(C)(C)O)cc(OCC4CC4(F)F)nn23)ccc1C(=O)NC1CC1 (racemic) [Example 240, (RS)—N-cyclopropyl-4-{6-[(2,2-difluorocyclopropyl)methoxy]-8-[(2-hydroxy-2-methylpropyl)amino]imidazo[1,2-b]pyridazin-3-yl}-2-methylbenzamide]	1.2
Cc1cc(-c2cnc3c(NCC(C)(C)O)cc(Sc4nncn4C)nn23)ccc1C(=O)NC1CC1 [Example 413, N-cyclopropyl-4-{8-[(2-hydroxy-2-methylpropyl)amino]-6-[(4-methyl-4H-1,2,4-triazol-3-yl)sulfanyl]imidazo[1,2-b]pyridazin-3-yl}-2-methylbenzamide]	45.7
COC(C)(C)CNc1cc(-c2ccncc2)nn2c(-c3ccc(C(=O)NC4CC4)c(C)c3)cnc12 [Example 17, N-cyclopropyl-4-{8-[(2-methoxy-2-methylpropyl)amino]-6-(pyridin-4-yl)imidazo[1,2-b]pyridazin-3-yl}-2-methylbenzamide]	3.2
CC(C)(O)CNc1cc(-c2ccc(F)cc2)nn2c(-c3ccc(C(=O)NC4CC4)cc3)cnc12 [Example 19, N-cyclopropyl-4-{6-(4-fluorophenyl)-8-[(2-hydroxy-2-methylpropyl)amino]imidazo[1,2-b]pyridazin-3-yl}benzamide]	1.6
Cc1cc(-c2cnc3c(NCC(C)(C)O)cc(Oc4ccncc4)nn23)ccc1C(=O)NC1CC1 [Example 332, N-cyclopropyl-4-{8-[(2-hydroxy-2-methylpropyl)amino]-6-(pyridin-4-yl-oxy)imidazo[1,2-b]pyridazin-3-yl}-2-methylbenzamide]	26.8

More lines, now with the values ahead:

IC50 [nM]	Structure (SMILES)
< 1	CNC(=O)c1ccc(-c2cnc3c(NCC(F)F)cc(Oc4ccc(OC)cc4F)nn23)cc1C [Example 580, 4-{8-[(2,2-difluoroethyl)amino]-6-(2-fluoro-4-meth-oxyphenoxy)imidazo[1,2-b]pyridazin-3-yl}-N,2-dimethylbenzamide]
0.1	Cc1cc(-c2cnc3c(NCCN4CCN(C)CC4)cc(Oc4cccc(F)c4)nn23)ccc1C(=O)NC1CC1 [Example 501, N-cyclopropyl-4-[6-(3-fluoro-phenoxy)-8-{[2-(4-methyl-piperazin-1-yl)ethyl]amino}imidazo[1,2-b]pyridazin-3-yl]-2-methylbenzamide]
1.1	Cc1cc(-c2cnc3c(NCCCC(F)(F)F)cc(Nc4ccc(F)c(F)c4)nn23)ccc1C(=O)NC1CC1 [Example 447, N-cyclopropyl-4-{6-[(3,4-difluorophenyl)amino]-8-[(4,4,4-trifluorobutyl)amino]imidazo[1,2-b]pyridazin-3-yl}-2-methylbenzamide]
2.8	Cc1cc(-c2cnc3c(NCCC(F)(F)F)cc(Sc4cnccn4)nn23)ccc1C(=O)NC1CC1 [Example 420, N-cyclopropyl-2-methyl-4-{6-(pyrazin-2-ylsulfanyl)-8-[(3,3,3-trifluoropropyl)amino]imidazo[1,2-b]pyridazin-3-yl}benzamide]
0.2	Cc1cc(-c2cnc3c(NCCC(F)(F)F)cc(Nc4cccnc4)nn23)ccc1C(=O)NC1CC1 [Example 439, N-cyclopropyl-2-methyl-4-{6-(pyridin-3-ylamino)-8-[(3,3,3-trifluoropropyl)amino]imidazo[1,2-b]pyridazin-3-yl}benzamide]
0.3	Cc1cc(-c2cnc3c(NCCC(F)(F)F)cc(Oc4cccc(F)c4N)nn23)ccc1C(=O)NC1CC1 [Example 477, 4-{6-(2-amino-3-fluoro-phenoxy)-8-[(3,3,3-tri-fluoropropyl)amino]imidazo[1,2-b]pyridazin-3-yl}-N-cyclopropyl-2-methylbenzamide]
0.1	Cc1cc(-c2cnc3c(NCCN4CCOCC4)cc(Oc4ccc(F)c(F)c4)nn23)ccc1C(=O)NC1CC1 [Example 540, N-cyclopropyl-4-[6-(3,4-difluoro-phenoxy)-8-{[2-(morpholin-4-yl)ethyl]amino}imidazo[1,2-b]pyridazin-3-yl]-2-methyl-benzamide]
5.4	CNC(=O)c1ccc(-c2cnc3c(NCCOC)cc(Oc4cc(F)ccc4C)nn23)cc1C [Example 585, 4-{6-(5-fluoro-2-methylphenoxy)-8-[(2-methoxyethyl)a-mino]imidazo[1,2-b]pyridazin-3-yl}-N,2-dimethylbenzamide]
